Measured values as given in US8497260B2, “2-arylbenzothiophene derivatives or pharmaceutically acceptable salts thereof, preparation method thereof, and pharmaceutical composition for the diagnosis or treatment of degenerative brain disease containing the same as active ingredient” (Industry-University Cooperation Foundation Sogang University, priority 2009, dated 2013).

These compounds were tested against T1, β-amyloid (Aβ1-42) fibrils (Homo sapiens, UniProt P05067) (assay: Inhibitory binding assay against [125I]TZDM on β-amyloid (Aβ1-42) fibrils). Conditions: Aβ1-42 fibrils 10 nM, [125I]TZDM 0.05 nM, 10% ethanol, room temperature 3 hours, nonspecific binding with 2 μM ThT; read-out: Ki, relative binding affinity to [125I]TZDM (112).
T1 construct: β-Amyloid peptide (Aβ1-42, 1 mg, Bachem); purchased Bachem
T1 sequence (P05067 672-713 limits assumed): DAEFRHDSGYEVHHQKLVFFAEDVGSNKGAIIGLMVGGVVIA
Protocol: β-Amyloid peptide (Aβ1-42, 1 mg, Bachem) was completely dissolved in 1 mL of DMSO, 9 mL of phosphate buffered saline (PBS) (pH 7.4) was added thereto and well mixed. The resulting mixture was incubated at 37° C. for 60 minutes to form β-amyloid fibrils, 0.5 mL was taken and transferred to each e-tube and placed into a refrigerator maintained at −80° C.
To determine whether β-amyloid peptide was properly formed into β-amyloid fibrils, 150 μL of 5 μM Thioflavin T (ThT) was added to 50 μL of incubated β-amyloid fibrils, the fluorescence intensity of ThT binding specifically to β-amyloid fibrils at excitation/emission wavelengths (λex/λem), e.g., 450 nm/480 nm, was detected using a spectrometer.
0.850 mL of 10% Ethanol was placed into 12 mm×75 mm borosilicate test tubes, and 50 μL of β-amyloid (Aβ1-42) fibrils were added such that the final reaction concentration became 10 nM. […] Here, the nonspecific binding was performed using 2 μM Thioflavin T (ThT).
With `COc1cccc2sc(-c3ccc([N+](=O)[O-])cc3)cc12` [Example 1, 2-(4-nitrophenyl)-4-methoxybenzothiophene] the Ki was 0.73 nM.
In the case of `COc1ccc2cc(-c3cccc([N+](=O)[O-])c3)sc2c1` [Example 2, 2-(3-nitrophenyl)-6-methoxybenzothiophene], the Ki is reported as 0.65 nM.
Compound `COc1ccc2cc(-c3ccc([N+](=O)[O-])cc3)sc2c1` [Example 3, 2-(4-nitrophenyl)-6-methoxybenzothiophene] has a Ki of 2.3 nM.
`COc1ccc2cc(-c3ccc(N)cc3)sc2c1` [Example 8, 2-(4-aminophenyl)-6-methoxybenzothiophene] was tested, and the Ki was 0.51 nM.
`Nc1ccc(-c2cc3ccc(OCCF)cc3s2)cc1` [Example 9, 2-(4-aminophenyl)-6-(2-fluoroethoxy)benzothiophene] gave a Ki of 0.38 nM.
`CNc1ccc(-c2cc3ccc(OC)cc3s2)cc1` [Example 11, 2-[4-(N-monomethylamino)phenyl]-6-methoxybenzothiophene] gave a Ki of 0.43 nM.
`COc1cccc2sc(-c3ccc(N(C)C)cc3)cc12` [Example 14, 2-[4-(N,N-dimethylamino)phenyl]-4-methoxybenzothiophene] was tested, and the Ki was 0.77 nM.
`COc1ccc2cc(-c3ccc(N(C)C)cc3)sc2c1` [Example 15, 2-[4-(N,N-dimethylamino)phenyl]-6-methoxybenzothiophene] gave a Ki of 1.58 nM.
Work on `COc1ccc2cc(-c3ccc(OCCF)nc3)sc2c1` [Example 18, 2-[2-(2-fluoroethoxy)pyridine-5-yl]-6-methoxybenzothiophene] yielded a Ki of 0.09 nM.
In the case of `COc1ccc2cc(-c3ccc(OCCCF)nc3)sc2c1` [Example 19, 2-[2-(3-fluoropropoxy)pyridine-5-yl]-6-methoxybenzothiophene], the Ki is reported as 0.39 nM.
`COc1ccc(-c2cc3ccc(OCCF)cc3s2)cn1` [Example 20, 2-(2-methoxypyridine-5-yl)-6-(2-fluoroethoxy)benzothiophene] was tested, and the Ki was 1.32 nM.
For `Nc1ccc(-c2cc3ccc(OCCF)cc3s2)cn1` [Example 21, 2-(2-aminopyridine-5-yl)-6-(2-fluoroethoxy)benzothiophene], the Ki was 1.11 nM.
`CNc1ccc(-c2cc3ccc(OCCF)cc3s2)cn1` [Example 22, 2-[2-(N-monomethylamino)pyridine-5-yl]-6-(2-fluoroethoxy)benzothiophene] gave a Ki of 0.46 nM.
In the case of `CN(C)c1ccc(-c2cc3ccc(OCCF)cc3s2)cn1` [Example 23, 2-[2-(N,N-dimethylamino)pyridine-5-yl]-6-(2-fluoroethoxy)benzothiophene], the Ki is reported as 0.72 nM.
With `Nc1ccc(-c2cc3ccc(OCCCF)cc3s2)cn1` [Example 24, 2-(2-aminopyridine-5-yl)-6-(3-fluoropropoxy)benzothiophene] the Ki was 1.18 nM.
For `CNc1ccc(-c2cc3ccc(OCCCF)cc3s2)cn1` [Example 25, 2-[2-(N-monomethylamino)pyridine-5-yl]-6-(3-fluoropropoxy)benzothiophene], the Ki was 0.06 nM.
Work on `CN(C)c1ccc(-c2cc3ccc(OCCCF)cc3s2)cn1` [Example 26, 2-[2-(N,N-dimethylamino)pyridine-5-yl]-6-(3-fluoropropoxy)benzothiophene] yielded a Ki of 0.09 nM.
Compound `COc1ccc2cc(-c3ccnc(OCCF)c3)sc2c1` [Example 27, 2-[2-(2-fluoroethoxy)pyridine-4-yl]-6-methoxybenzothiophene] has a Ki of 0.83 nM.
With `COc1ccc2cc(-c3ccnc(OCCCF)c3)sc2c1` [Example 28, 2-[2-(3-fluoropropoxy)pyridine-4-yl]-6-methoxybenzothiophene] the Ki was 0.1 nM.
With `COc1cc(-c2cc3ccc(OCCCF)cc3s2)ccn1` [Example 30, 2-(2-methoxypyridine-4-yl)-6-(3-fluoropropoxy)benzothiophene] the Ki was 0.79 nM.
Compound `COc1ccc2cc(-c3ccnc(OCCF)n3)sc2c1` [Example 31, 2-[2-(2-fluoroethoxy)pyrimidine-4-yl]-6-methoxybenzothiophene] has a Ki of 0.61 nM.
With `COc1ccc2cc(-c3ccnc(OCCCF)n3)sc2c1` [Example 32, 2-[2-(3-fluoropropoxy)pyrimidine-4-yl]-6-methoxybenzothiophene] the Ki was 0.46 nM.
